Measurements reported in patent publication US5880128A, “Carbonyl piperazinyl and piperidinyl compounds” (Schering Corporation, priority 1996, dated 1999).

target: farnesyl protein transferase (FPT); assay: In vitro enzyme assay: inhibition of farnesyl protein transferase (FPT, FTase); format: biochemical, rat; human; settings: concentration of compound which inhibits 50% of FPT transferase
Excerpt: 1. In vitro enzyme assays: Inhibition of farnesyl protein transferase and geranylgeranyl protein transferase.
Both farnesyl protein transferase (FPT) and geranylgeranyl protein transferase (GGPT) I are partially purified from rat brain by ammonium sulfate fractionation followed by Q-Sepharose (Pharmacia, Inc.) anion exchange chromatography essentially as described by Yokoyama et al (Yokoyama, K., et al., (1991), A protein geranylgeranyltransferase from bovine brain: Implications for protein prenylation specificity, Proc. Natl. Acad. Sci USA 88: 5302-5306, the disclosure of which is incorporated herein by reference thereto). Human farnesyl protein transferase is also expressed in E. coli, using cDNA clones encoding both the α and β subunits. The methods used are similar to those published (Omer, C. et al., (1993), Characterization of recombinant human farnesyl protein transferase: Cloning, expression, farnesyl diphosphate binding, and functional homology with yeast prenyl-protein transferases, Biochemistry 32:5167-5176). Human farnesyl protein transferase is partially-purified from the soluble protein fraction of E. coli as described above. The farnesyl protein transferase inhibitors disclosed herein may inhibit both human and rat enzyme with similar potencies. Two forms of val^12 -Ha-Ras protein are prepared as substrates for these enzymes, differing in their carboxy terminal sequence. One form terminates in cysteine-valine-leucine-serine (Ras-CVLS) the other in cystein-valine-leucine-leucine (Ras-CVLL). Ras-CVLS is a substrate for the farnesyl protein transferase while Ras-CVLL is a substrate for geranylgeranyl protein transferase I. The cDNAs encoding these proteins are constructed so that the proteins contain an amino-terminal extension of 6 histidine residues. Both proteins are expressed in Escherichia coli and purified using metal chelate affinity chromatography. The radiolabelled isoprenyl pyrophosphate substrates, [^3 H]farnesyl pyrophosphate and [^3 H]geranylgeranyl pyrophosphate, are purchased from a commercial source, such as DuPont/New England Nuclear.
Several methods for measuring farnesyl protein transferase activity are known (Reiss et al 1990, Cell 62: 81; Schaber et al 1990, J. Biol. Chem. 265: 14701; Manne et al 1990, PNAS 8: 7541; and Barbacid & Manne 1993, U.S. Pat. No. 5,185,248). […] Filter mats are washed once with 6% TCA, 2% SDS and radioactivity is measured in a Wallac 1204 Betaplate BS liquid scintillation counter. Percent inhibition is calculated relative to the DMSO vehicle control. […]

Row | IC50 | Structure (SMILES)
1 | > 60 µM | O=C(c1ccccc1)C1CCN(C(=O)Cc2ccncc2)CC1
2 | 12.1 µM | Cc1c(C)c(C)c(C(=O)C2CCN(C(=O)Cc3ccncc3)CC2)c(C)c1C
3 | > 60 µM | O=C(c1ccc(F)cc1)C1CCN(C(=O)Cc2ccncc2)CC1
4 | 60 µM | O=C(c1ccc(Cl)cc1)C1CCN(C(=O)Cc2ccncc2)CC1
